Measurements reported in patent publication US4916141A, “(S)-7-(3-amino-1-pyrrolidinyl)-1-cyclop ropyl-6-fluoro-1,4-dihydro-4-oxo-1,8-naphthyridine-3-carboxylic acid” (Warner-Lambert Company, priority 1989, dated 1990).
≈ marks a conversion by molar mass, not a printed value. Counter-ions that a name gives are not always drawn.

Key:
[1] = tested on: gram-positive and gram-negative bacteria; experiment: antibacterial activity in vitro and in vivo (summary statement); settings: in vitro as well as in vivo
Excerpt: The compounds of the invention display antibacterial activity when tested by the microtitration dilution method as described in Heifetz, et al, Antimicr. Agents and Chemot. 6, 124 (1974), which is incorporated herein by reference. By the use of the above reference method, the following minimum inhibitory concentration values (MICs in μg/ml) were obtained for the compound of the present invention, (S)-7-(3-amino-1-pyrrolidinyl)-1-cyclopropyl-6-fluoro-1,4-dihydro-4-oxo-1,8-naphthyridine-3-carboxylic acid, the corresponding (R) isomer and the racemic compound as described in U.S. Pat. No. 4,649,144.
(§1) The in vivo experiments on the bacteria named are expressed in terms of median protective doses (PD50) on the test animals to which the compounds were administered orally and subcutaneously. The measurement of PDso was carried out according to the following procedure:
Therapeutic activities of the compounds were compared in acute mouse protection tests in which 18-22 g female Charles River CD-1 mice were used. Oral and subcutaneous doses in twofold rising incremental series were administered concurrently with bacterial challenge. Challenges were accomplished by the intraperitoneal injection of an estimated 100 median lethal doses in 0.5 ml volumes of 5% hog gastric mucin or tryptic soy broth. Generally, greater than 90% of the untreated controls died within 48-72 hours. […]

Escherichia coli Vogel [2] = experiment: acute mouse protection test (PD50); type: in vivo, mouse (female Charles River CD-1); settings: for median protective dose (PD50) P.O.: oral; for median protective dose (PD50) S.C.: subcutaneous
Method: as §1
(§2) Therapeutic activities of the compounds were compared in acute mouse protection tests in which 18-22 g female Charles River CD-1 mice were used. Oral and subcutaneous doses in twofold rising incremental series were administered concurrently with bacterial challenge. Challenges were accomplished by the intraperitoneal injection of an estimated 100 median lethal doses in 0.5 ml volumes of 5% hog gastric mucin or tryptic soy broth. Generally, greater than 90% of the untreated controls died within 48-72 hours. Final survival percentages, obtained after 4-7 days of observation among groups of 8-16 mice, were used to estimate median protective doses (PD50) by the log-probit method.

[3] = tested on: Pseudomonas aeruginosa UI-18; experiment: acute mouse protection test (PD50); type: in vivo, mouse (female Charles River CD-1); settings: for median protective dose (PD50) P.O.: oral; for median protective dose (PD50) S.C.: subcutaneous
Method: as §1, §2

[4] = tested on: Staphylococcus faecalis MGH-2; experiment: acute mouse protection test (PD50); type: in vivo, mouse (female Charles River CD-1); settings: for median protective dose (PD50) P.O.: oral; for median protective dose (PD50) S.C.: subcutaneous
Method: as §1, §2

[5] = tested on: Streptococcus pneumoniae SV-1; experiment: acute mouse protection test (PD50); type: in vivo, mouse (female Charles River CD-1); settings: for median protective dose (PD50) P.O.: oral; for median protective dose (PD50) S.C.: subcutaneous
Method: as §1, §2

[6] = tested on: Klebsiella pneumoniae MGH-2; experiment: microtitration dilution MIC; type: cell-based; settings: MGH2, read-out: minimum inhibitory concentration (MIC)
Excerpt: (§3) The compounds of the invention display antibacterial activity when tested by the microtitration dilution method as described in Heifetz, et al, […]. Agents and Chemot. 6, 124 (1974), which is incorporated herein by reference. […] Pat. No. 4,649,144.

Escherichia coli Vogel [7] = experiment: microtitration dilution MIC; type: cell-based; settings: read-out: minimum inhibitory concentration (MIC)
Excerpt: as §3

Proteus rettgeri M 1771 = experiment: microtitration dilution MIC; type: cell-based; settings: Providencia rettgeri, M1771, read-out: minimum inhibitory concentration (MIC)
Excerpt: as §3

[8] = tested on: Staphylococcus aureus H 228; experiment: microtitration dilution MIC; type: cell-based; settings: H228, read-out: minimum inhibitory concentration (MIC)
Excerpt: as §3

[9] = tested on: Streptococcus pyogenes C-203; experiment: microtitration dilution MIC; type: cell-based; settings: C203, read-out: minimum inhibitory concentration (MIC)
Excerpt: as §3

[10] = tested on: Pseudomonas aeruginosa UI-18; experiment: microtitration dilution MIC; type: cell-based; settings: UI18, read-out: minimum inhibitory concentration (MIC)
Excerpt: as §3

[11] = tested on: Enterobacter cloacae MA 2646; experiment: microtitration dilution MIC; type: cell-based; settings: MA2646, read-out: minimum inhibitory concentration (MIC)
Excerpt: as §3

[12] = tested on: Staphylococcus aureus UC-76; experiment: microtitration dilution MIC; type: cell-based; settings: UC76, read-out: minimum inhibitory concentration (MIC)
Excerpt: as §3

[13] = tested on: Staphylococcus faecalis MGH-2; experiment: microtitration dilution MIC; type: cell-based; settings: MGH2, read-out: minimum inhibitory concentration (MIC)
Excerpt: as §3

[14] = tested on: Streptococcus pneumoniae SV-1; experiment: microtitration dilution MIC; type: cell-based; settings: SV1, read-out: minimum inhibitory concentration (MIC)
Excerpt: as §3

N[C@H]1CCN(c2nc3c(cc2F)c(=O)c(C(=O)O)cn3C2CC2)C1 ["S" Isomer, (S)-7-(3-Amino-1-pyrrolidinyl)-1-cyclopropyl-6-fluoro-1,4-dihydro-4-oxo-1,8-naphthyridine-3-carboxylic acid]
antibacterial activity compared with R isomer and racemic compound [1]: not only better than its opposite R isomer but also better than the racemic compound | antibacterial activity compared with R isomer and racemic compound ([1]; listed as S form): significantly better activity against both gram-positive and gram-negative bacteria in vitro as well as in vivo | median protective dose (PD50) P.O. (Escherichia coli Vogel [2]): 0.7 | median protective dose (PD50) S.C. (Escherichia coli Vogel [2]): 0.35 | median protective dose (PD50) P.O. [3]: 3.5 | median protective dose (PD50) S.C. [3]: 2.1 | median protective dose (PD50) P.O. [4]: 19 | median protective dose (PD50) S.C. [4]: 14 | median protective dose (PD50) P.O. [5]: 19 | median protective dose (PD50) S.C. [5]: 9 | MIC [6]: 0.013 µg/mL (≈ 0.0391 µM) | MIC (Escherichia coli Vogel [7]): 0.006 µg/mL (≈ 0.0181 µM) | MIC (Proteus rettgeri M 1771): 0.025 µg/mL (≈ 0.0752 µM) | MIC [8]: 0.05 µg/mL (≈ 0.15 µM) | MIC [9]: 0.05 µg/mL (≈ 0.15 µM) | MIC [10]: 0.1 µg/mL (≈ 0.301 µM) | MIC [11]: 0.013 µg/mL (≈ 0.0391 µM) | MIC [12]: 0.013 µg/mL (≈ 0.0391 µM) | MIC [13]: 0.1 µg/mL (≈ 0.301 µM) | MIC [14]: 0.05 µg/mL (≈ 0.15 µM)

N[C@@H]1CCN(c2nc3c(cc2F)c(=O)c(C(=O)O)cn3C2CC2)C1 ["R" Isomer, (R)-7-(3-Amino-1-pyrrolidinyl)-1-cyclopropyl)-6-fluoro-1,4-dihydro-4-oxo-1,8-naphthyridine-3carboxylic acid hydrochloride]
median protective dose (PD50) P.O. (Escherichia coli Vogel [2]): 0.51 | median protective dose (PD50) S.C. (Escherichia coli Vogel [2]): 0.35 | median protective dose (PD50) P.O. [4]: 45 | median protective dose (PD50) S.C. [4]: 34 | MIC [6]: 0.025 µg/mL | MIC (Escherichia coli Vogel [7]): 0.013 µg/mL | MIC (Proteus rettgeri M 1771): 0.05 µg/mL | MIC [8]: 0.2 µg/mL | MIC [9]: 0.2 µg/mL | MIC [10]: 0.4 µg/mL | MIC [11]: 0.025 µg/mL | MIC [12]: 0.05 µg/mL | MIC [13]: 0.2 µg/mL | MIC [14]: 0.1 µg/mL

NC1CCN(c2nc3c(cc2F)c(=O)c(C(=O)O)cn3C2CC2)C1 (racemic) [Racemic, 7-(3-amino-1-pyrrolidinyl)-1-Cyclopropyl-6-fluoro-1,4-dihydro-4-oxo-1,8-naphthyridine-3-carboxylic acid]
median protective dose (PD50) P.O. (Escherichia coli Vogel [2]): 2.0 | median protective dose (PD50) S.C. (Escherichia coli Vogel [2]): 0.6 | median protective dose (PD50) P.O. [3]: 7.3 | median protective dose (PD50) S.C. [3]: 3.2 | median protective dose (PD50) P.O. [4]: 58 | median protective dose (PD50) S.C. [4]: 33 | median protective dose (PD50) P.O. [5]: 32 | median protective dose (PD50) S.C. [5]: 14 | MIC [6]: 0.025 µg/mL (≈ 0.0752 µM) | MIC (Escherichia coli Vogel [7]): 0.013 µg/mL (≈ 0.0391 µM) | MIC (Proteus rettgeri M 1771): 0.1 µg/mL (≈ 0.301 µM) | MIC [8]: 0.2 µg/mL (≈ 0.602 µM) | MIC [9]: 0.2 µg/mL (≈ 0.602 µM) | MIC [10]: 0.05 µg/mL (≈ 0.15 µM) | MIC [11]: 0.025 µg/mL (≈ 0.0752 µM) | MIC [12]: 0.013 µg/mL (≈ 0.0391 µM) | MIC [13]: 0.2 µg/mL (≈ 0.602 µM) | MIC [14]: 0.2 µg/mL (≈ 0.602 µM)
